Measured values: US20060148683A1, “Detection and treatment of intravascular lesions” (priority 2001, published 2006)
pKd: −log10 of the molar value. Like-named read-outs stand apart in the source and are kept apart here. Starred links: 1 amine or outer side, 2 acyl side, 3 side chain; linkers in the order of their positions; H or OH if unused. Positions of bridges follow the written chain, without caps; N, C: chain ends. Non-standard residues stand in square brackets, D forms with d. Residues, ends and D or L forms follow the SMILES beside them. Groups on a side chain read outwards from the residue. ξ: configuration not given here. *: point of attachment. NH(Fluorescein-5-yl) = O=C1OC2(c3ccc(O)cc3Oc3cc(O)ccc32)c2ccc(N*)cc21; Tyr(3-I) = N[C@@H](Cc1ccc(O)c(I)c1)C(=O)O; Mca = COc1ccc2c(CC(=O)*)cc(=O)oc2c1; Hyp = O=C(O)[C@@H]1C[C@@H](O)CN1; Ile(3ξ) = CCC(C)[C@H](N)C(=O)O; CO = O=C([*:1])[*:2]; Ahx = NCCCCCC(=O)O; βAla = NCCC(=O)O

Molecular target: T1, DD(E) fragment of fibrin (Homo sapiens, UniProt P02671+P02675+P02679, DEL433-453)
T1 construct: complex of the crosslinked D domains of adjacent fibrin monomers with the central E domain of fibrin
T1 sequence (P02671 130-216 limits assumed, stated change not applied): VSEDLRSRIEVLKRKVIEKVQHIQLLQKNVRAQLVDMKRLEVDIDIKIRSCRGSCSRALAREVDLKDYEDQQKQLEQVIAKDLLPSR
T1 sequence (P02671 36-97 limits assumed, stated change not applied): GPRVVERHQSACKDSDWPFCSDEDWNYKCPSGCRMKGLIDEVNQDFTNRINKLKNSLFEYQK
T1 sequence (P02675 164-491 limits assumed, stated change not applied): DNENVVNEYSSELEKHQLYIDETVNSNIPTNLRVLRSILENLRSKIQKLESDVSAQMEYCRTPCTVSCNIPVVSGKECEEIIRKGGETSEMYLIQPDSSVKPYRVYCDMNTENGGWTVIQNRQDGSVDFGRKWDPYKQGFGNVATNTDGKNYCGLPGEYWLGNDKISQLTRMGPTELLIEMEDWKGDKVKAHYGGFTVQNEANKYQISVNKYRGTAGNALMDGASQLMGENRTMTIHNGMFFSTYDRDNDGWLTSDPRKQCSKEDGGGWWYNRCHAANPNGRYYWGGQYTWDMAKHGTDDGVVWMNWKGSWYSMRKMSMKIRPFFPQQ
T1 sequence (P02675 45-152 limits assumed, stated change not applied): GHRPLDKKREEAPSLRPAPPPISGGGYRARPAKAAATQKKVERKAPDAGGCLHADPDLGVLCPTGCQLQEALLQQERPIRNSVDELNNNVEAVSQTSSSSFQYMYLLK
T1 sequence (P02679 114-432 limits assumed, stated change not applied): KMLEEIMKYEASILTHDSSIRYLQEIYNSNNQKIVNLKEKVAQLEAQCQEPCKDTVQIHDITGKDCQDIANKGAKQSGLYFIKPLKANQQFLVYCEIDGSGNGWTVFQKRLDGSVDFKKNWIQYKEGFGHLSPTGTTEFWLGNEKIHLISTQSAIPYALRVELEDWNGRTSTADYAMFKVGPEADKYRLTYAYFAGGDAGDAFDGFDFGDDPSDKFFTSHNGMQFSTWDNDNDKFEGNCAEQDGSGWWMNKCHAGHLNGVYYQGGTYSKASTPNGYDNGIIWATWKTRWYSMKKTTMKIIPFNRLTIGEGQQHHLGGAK
T1 sequence (P02679 27-88 limits assumed, stated change not applied): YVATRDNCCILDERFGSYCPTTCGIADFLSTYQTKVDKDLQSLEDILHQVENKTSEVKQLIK
Test: Dissociation constant (Kd) of optical agent for DD(E) fragment of fibrin
Assay type: binding
Conditions: for pKd: read-out: Kd vs. DD(E); for Kd: 24° C., read-out: Kd (μM) vs. DD(E) @ 24° C.
Text: Optical agents of the invention include an OD and a FBM covalently bound to each other, either directly or via a linker (OD-L-FBM). The FBM can be a small molecule or a peptide. As used herein, the term “peptide” refers to a chain of amino acids that is about 2 to about 75 amino acids in length (e.g., 3 to 50 amino acids). Affinity of a peptide for fibrin can be expressed in terms of its dissociation constant (Kd), which is the equilibrium constant for the dissociation reaction of the peptide from the DD(E) fragment of fibrin. The term “DD(E) fragment of fibrin” refers to a fibrin subcomponent generated by proteolytic degradation of fibrin with plasmin or trypsin. The DD(E) fragment is a complex of the crosslinked D domains of adjacent fibrin monomers with the central E domain of fibrin (See, for example, Spraggon et al., Nature 389:455462 (1997)). Since DD(E) is a product resulting from the proteolysis of fibrin, one of skill in the art will understand that there may be some slight heterogeneity in its composition. The DD(E) fragment can be biotinylated and immobilized via avidin to a solid substrate (e.g., a multi-well plate). Peptides can be incubated with the immobilized DD(E) fragment in a suitable buffer and binding detected using known methodology. Methods for determining the dissociation constant of the peptide for DD(E) are set forth in WO 01/09188.
As a result of the FBM having affinity for fibrin, the optical agent also has affinity for fibrin. The term “affinity” refers to the capacity of the optical agent to be taken up by, retained by, or bound to the fibrin in the lesion. The affinity of an optical agent can be expressed in terms of its Kd, which is the equilibrium constant for the dissociation reaction of the optical agent from fibrin, and determined as discussed above for the peptide. The dissociation constant of the optical agent for DD(E) can have a value less than about 10 μM (e.g., 0.1 μM to 10 μM). In one embodiment, the dissociation constant value is less than about 5 μM. In another embodiment, the dissociation constant value is less than about 1 μM. The dissociation constant also may have a value less than about 0.3 μM (e.g., 0.2 μM).
In the methods of the present invention, the optical agent forms a fibrin-optical agent complex at the site of the lesion. The ability of the optical agent to form a fibrin-optical agent complex may be measured by examining the optical agent's dissociation constant (Kd) for a DD(E) fragment of fibrin as discussed above.

| Compound | pKd | Kd |
| --- | --- | --- |
| CCC(C)[C@H](NC(=O)[C@H](Cc1c[nH]c2ccccc12)NC(=O)[C@@H]1CSSC[C@H](NC(=O)[C@H](CCC(=O)O)NC(=O)[C@H](Cc2c[nH]c3ccccc23)NC(=O)[C@@H](CCC(N)=O)NC(=O)CCCCCNC(=O)Cc2cc(=O)oc3cc(OC)ccc23)C(=O)N2CCC[C@H]2C(=O)N[C@@H](Cc2ccc(O)cc2)C(=O)NCC(=O)N[C@@H](CC(C)C)C(=O)N1)C(=O)N[C@@H](CCC(N)=O)C(N)=O (some centres unmarked) [Structure XIII] ({Mca-Ahx}-[dQ]WECPYGLCW[Ile(3ξ)]Q-NH2; disulfide 4-9) | 6.70 | – |
| CC[C@H](C)[C@H](NC(=O)[C@H](Cc1c[nH]cn1)NC(=O)[C@@H]1CSSC[C@H](NC(=O)[C@H](Cc2c[nH]cn2)NC(=O)[C@H](Cc2ccccc2)NC(=O)CCCCCNC(=O)Nc2ccc3c(c2)C(=O)OC32c3ccc(O)cc3Oc3cc(O)ccc32)C(=O)N2C[C@H](O)C[C@H]2C(=O)N[C@@H](Cc2ccc(O)c(I)c2)C(=O)N[C@@H](CC(=O)O)C(=O)N[C@@H](CC(C)C)C(=O)N1)C(=O)N[C@@H](CC(C)C)C(N)=O [Structure II] ({NH(Fluorescein-5-yl)-CO-Ahx}-FHC[Hyp][Tyr(3-I)]DLCHIL-NH2; disulfide 3-8) | – | 0.1 µM |
| CC[C@H](C)[C@H](NC(=O)[C@H](Cc1c[nH]cn1)NC(=O)[C@@H]1CSSC[C@H](NC(=O)[C@H](Cc2c[nH]cn2)NC(=O)[C@H](Cc2ccccc2)NC(=O)CNC(=O)CCCCCNC(=O)Nc2ccc3c(c2)C(=O)OC32c3ccc(O)cc3Oc3cc(O)ccc32)C(=O)N2C[C@H](O)C[C@H]2C(=O)N[C@@H](Cc2ccc(O)c(I)c2)C(=O)N[C@@H](CC(=O)O)C(=O)N[C@@H](CC(C)C)C(=O)N1)C(=O)N[C@@H](CC(C)C)C(N)=O [Structure III] ({NH(Fluorescein-5-yl)-CO-Ahx}-GFHC[Hyp][Tyr(3-I)]DLCHIL-NH2; disulfide 4-9) | – | 0.1 µM |
| COc1ccc2c(CC(=O)NCCCCCC(=O)N[C@@H](CC(C)C)C(=O)N3CCC[C@H]3C(=O)N[C@H]3CSSC[C@@H](C(=O)N[C@@H](CC(C)C)C(=O)N[C@@H](CC(=O)O)C(N)=O)NC(=O)[C@H](C(C)O)NC(=O)CNC(=O)[C@H](Cc4ccc(O)cc4)NC(=O)[C@H](Cc4ccc(O)cc4)NC(=O)[C@H](CC(=O)O)NC3=O)cc(=O)oc2c1 (some centres unmarked) [Structure XII] | 5.18 | – |
| CC[C@H](C)[C@H](NC(=O)[C@H](Cc1c[nH]cn1)NC(=O)[C@@H]1CSSC[C@H](NC(=O)[C@H](Cc2c[nH]cn2)NC(=O)[C@H](Cc2ccccc2)NC(=O)CNC(=O)CNC(=O)CCCCCNC(=O)Nc2ccc3c(c2)C(=O)OC32c3ccc(O)cc3Oc3cc(O)ccc32)C(=O)N2C[C@H](O)C[C@H]2C(=O)N[C@@H](Cc2ccc(O)c(I)c2)C(=O)N[C@@H](CC(=O)O)C(=O)N[C@@H](CC(C)C)C(=O)N1)C(=O)N[C@@H](CC(C)C)C(N)=O [Structure V] ({NH(Fluorescein-5-yl)-CO-Ahx}-GGFHC[Hyp][Tyr(3-I)]DLCHIL-NH2; disulfide 5-10) | – | 0.09 µM |
| CC[C@H](C)[C@H](NC(=O)[C@H](Cc1c[nH]cn1)NC(=O)[C@@H]1CSSC[C@H](NC(=O)[C@H](Cc2c[nH]cn2)NC(=O)[C@H](Cc2ccccc2)NC(=O)CNC(=O)CNC(=O)[C@@H](N)CCCCNC(=O)Nc2ccc3c(c2)C(=O)OC32c3ccc(O)cc3Oc3cc(O)ccc32)C(=O)N2C[C@H](O)C[C@H]2C(=O)N[C@@H](Cc2ccc(O)c(I)c2)C(=O)N[C@@H](CC(=O)O)C(=O)N[C@@H](CC(C)C)C(=O)N1)C(=O)N[C@@H](CC(C)C)C(N)=O [Structure IX] (H-K([CO-NH(Fluorescein-5-yl)])GGFHC[Hyp][Tyr(3-I)]DLCHIL-NH2; disulfide 6-11) | – | 0.1 µM |
| CC[C@H](C)[C@H](NC(=O)[C@H](Cc1c[nH]cn1)NC(=O)[C@@H]1CSSC[C@H](NC(=O)[C@H](Cc2c[nH]cn2)NC(=O)[C@H](Cc2ccccc2)NC(=O)[C@H](Cc2c[nH]c3ccccc23)NC(=O)CCCCCNC(=O)Nc2ccc3c(c2)C(=O)OC32c3ccc(O)cc3Oc3cc(O)ccc32)C(=O)N2C[C@H](O)C[C@H]2C(=O)N[C@@H](Cc2ccc(O)c(I)c2)C(=O)N[C@@H](CC(=O)O)C(=O)N[C@@H](CC(C)C)C(=O)N1)C(=O)N[C@@H](CC(C)C)C(N)=O [Structure IV] ({NH(Fluorescein-5-yl)-CO-Ahx}-WFHC[Hyp][Tyr(3-I)]DLCHIL-NH2; disulfide 4-9) | – | 0.06 µM |
| CC[C@H](C)[C@H](NC(=O)[C@H](Cc1c[nH]cn1)NC(=O)[C@@H]1CSSC[C@H](NC(=O)[C@H](Cc2c[nH]cn2)NC(=O)[C@H](Cc2ccccc2)NC(=O)CCNC(=O)Nc2ccc3c(c2)C(=O)OC32c3ccc(O)cc3Oc3cc(O)ccc32)C(=O)N2C[C@H](O)C[C@H]2C(=O)N[C@@H](Cc2ccc(O)c(I)c2)C(=O)N[C@@H](CC(=O)O)C(=O)N[C@@H](CC(C)C)C(=O)N1)C(=O)N[C@@H](CC(C)C)C(N)=O [Structure I] ({NH(Fluorescein-5-yl)-CO-βAla}-FHC[Hyp][Tyr(3-I)]DLCHIL-NH2; disulfide 3-8) | – | 0.1 µM |
